According to US20250282799A1, “SUBSTITUTED PYRIDO[4,3-d]PYRIMIDINES AS KRAS MODULATORS” (Alterome Therapeutics, Inc., priority 2023, published 2025):

What follows are compounds tested on KRAS G12V dependent lung adenocarcinoma cell line, NCI-H441 (assay: Cellular pERK (Thr202/Tyr204) FRET/HTRF assay). Conditions: Homo sapiens, NCI-H441, cellular pERK (Thr202/Tyr204) HTRF, NCI-H441 cells.
Type: cell-based
Text: “Ras” refers to a protein in the Ras superfamily of small GTPases, such as in the Ras subfamily. […] The Ras proteins play a critical role in the regulation of cell behaviors, including proliferation, differentiation, and survival. […] KRAS G12V, G12D, and G12S variants are common in human cancers and Ras inhibitors binding in or near the Switch II pocket may provide mutant binding selectivity. RAS mutations are known to be often associated with pancreatic, colorectal and non-small-cell lung carcinomas (Lone, A. M. et al. J. Am. Chem. Soc. 2011,133, 11665-74, which is entirely incorporated herein by reference; Dillon, M. B.; Bachovchin, D. A.; Brown, S. J.; Finn, M. G.; Rosen, H.; Cravatt, B. F.; Mowen, K. A. ACS Chem. Biol. 2012, 7, 1198-204, which is entirely incorporated herein by reference; Bachovchin, D. A.; Brown, S. J.; Rosen, H.; Cravatt, B. F. Nat. Biotechnol. 2009, 27, 387-94, Ostrem, J. M.; Peters, U.; Sos, M. L.; Wells, J. A.; Shokat, K. M. Nature 2013, 503, 548-551. Ryan M. B. and Corcoran R. B, Nat. Rev Clin Onco. 2018, 11, 709-720.). Ras proteins are key members in the Ras/Raf/Mitogen-activated protein kinase (MAPK) signaling pathway. This pathway regulates a wide variety of cellular processes, including proliferation, differentiation, apoptosis, and stress responses. One way to measure the impact of an inhibitor of Ras proteins is to measure downstream phosphorylation of proteins in the MAPK pathway. The MAPK pathway includes extracellular signal-regulated kinases named ERK1 and ERK2, which are serine-threonine kinases that regulate cellular signaling under both normal and oncogenic conditions. ERK expression and hyperactivation via phosphorylation plays a major role in cancer progression and are downstream of Ras proteins. The assay used for measuring the downstream impact of Ras inhibition is the use of a highly sensitive cell-based readout of ERK phosphorylation (pERK) specifically on Threonine (Thr) 202 and Tyrosine (Tyr) 204 in a KRAS G12V dependent lung adenocarcinoma cell line, NCI-H441 (ATCC Cat #HTB-174). The assay described herein is suitable for assessing inhibition of Ras and can be tailored for any of the predominant oncogenic mutations in any isoform of Ras (e.g., KRAS, HRAS, and NRAS) by changing the cell line.
pERK was measured using an advanced pERK assay designed for the robust and highly sensitive quantification of ERK phosphorylation on Thr202/Tyr204. This assay is intended for the simple, rapid, and direct detection of endogenous levels of ERK1/2 in cells, but only when ERK is phosphorylated at Thr202 and Tyr204 (Perkin Elmer Catalog #64AERPEH). pERK was detected in a FRET based sandwich assay format using 2 different specific antibodies, one labelled with Eu3+-Cryptate (donor) and the second with d2 (acceptor). When the dyes are in close proximity, the excitation of the donor with a light source (laser or flash lamp) triggers a Fluorescence Resonance Energy Transfer (FRET) towards the acceptor, which in turn fluoresces at a specific wavelength (665 nm). The specific signal modulates positively in proportion to p-ERK1/2 (Thr202/Tyr204). The simple mix-and-read protocol eliminates all wash steps for faster analysis and high-quality output. Briefly, cells were diluted to the desired concentration per well based on a growth curve showing ˜75% confluence within a 24-hour time period at no less than 95% viability. Cell suspension (24 μL) were added into each well of 384-well culture plate and maintained in 37° C. 5% CO2 incubator overnight prior to assay. All compounds were transferred to stock plates using TECAN (EVO200) liquid handler using DMSO as the solubilizing and dilution agent. Test compounds were transferred onto adherent cells using an Echo655 liquid handler. DMSO was employed as negative control. Cells were incubated with test compounds for 1 hr in a 37° C., 5% CO2 incubator following compound addition. […]
C#Cc1c(F)ccc2cc(N)cc(-c3ncc4c(N5CCOC[C@H]6[C@H](F)[C@H]65)nc(OC[C@@]56CCCN5C[C@@]5(C[C@@H]5F)C6)nc4c3F)c12 (single isomer, unassigned) [Example 252] showed an IC50 of under 50 nM.
C#Cc1c(F)ccc2cccc(-c3ncc4c(N5CCCC[C@H]6[C@H](F)[C@H]65)nc(OC[C@]56C/C(=C/F)CN5CCC65CC5)nc4c3F)c12 [Example 402, (R,Z)-7a′-(((7-(8-Ethynyl-7-fluoronaphthalen-1-yl)-8-fluoro-4-((1S,7R,8S)-8-fluoro-2-azabicyclo[5.1.0]octan-2-yl)pyrido[4,3-d]pyrimidin-2-yl)oxy)methyl)-6′-(fluoromethylene)hexahydrospiro[cyclopropane-1,1′-pyrrolizine]] showed an IC50 of under 50 nM.
In the case of [2H]C([2H])(Oc1nc(N2CCOC[C@H]3[C@H](F)[C@H]32)c2c(OC(C)C)nc(-c3cc(N)cc4ccc(F)c(C#C)c34)c(F)c2n1)[C@@]12CCCN1C[C@H](F)C2 [Example 323, 5-ethynyl-6-fluoro-4-(8-fluoro-4-((1S,7S,8S)-8-fluoro-5-oxa-2-azabicyclo[5.1.0]octan-2-yl)-2-(((2R,7aS)-2-fluorotetrahydro-1H-pyrrolizin-7a(5H)-yl)methoxy-d2)-5-isopropoxypyrido[4,3-d]pyrimidin-7-yl)naphthalen-2-amine], the IC50 is reported as under 50 nM.
With [2H]C([2H])(Oc1nc(N2CCOC[C@H]3[C@H](F)[C@H]32)c2c(OC)nc(-c3cc(O)cc4ccc(F)c(C#C)c34)c(F)c2n1)[C@@]12CCCN1C[C@H](F)C2 [Example 241, 5-ethynyl-6-fluoro-4-(8-fluoro-4-((1S,7S,8S)-8-fluoro-5-oxa-2-azabicyclo[5.1.0]octan-2-yl)-2-(((2R,7aS)-2-fluorotetrahydro-1H-pyrrolizin-7a(5H)-yl)methoxy-d2)-5-methoxypyrido[4,3-d]pyrimidin-7-yl)naphthalen-2-ol] the IC50 was under 50 nM.
[2H]C([2H])(Oc1nc(N2CCOC[C@H]3[C@H](F)[C@H]32)c2c(F)nc(-c3cc(N)cc4ccc(F)c(C#C)c34)c(F)c2n1)[C@@]12CCCN1C[C@H](F)C2 [Example 303, 4-(5,8-Difluoro-4-((1S,7S,8S)-8-fluoro-5-oxa-2-azabicyclo[5.1.0]octan-2-yl)-2-(((2R,7aS)-2-fluorotetrahydro-1H-pyrrolizin-7a(5H)-yl)methoxy-d2)pyrido[4,3-d]pyrimidin-7-yl)-5-ethynyl-6-fluoronaphthalen-2-amine] gave an IC50 of under 50 nM.
In the case of C#Cc1cccc2cc(N)cc(-c3ncc4c(N5CCOC[C@H]6[C@H](F)[C@H]65)nc(OC[C@@H]5CCCN5C)nc4c3F)c12 [Example 297, 5-ethynyl-4-(8-fluoro-4-((1S,7S,8S)-8-fluoro-5-oxa-2-azabicyclo[5.1.0]octan-2-yl)-2-(((S)-1-methylpyrrolidin-2-yl)methoxy)pyrido[4,3-d]pyrimidin-7-yl)naphthalen-2-amine], the IC50 is reported as under 50 nM.
C#Cc1c(F)ccc2cc(N)cc(-c3ncc4c(N5CCOC[C@H]6[C@H](F)[C@H]65)nc(OC[C@@]56CCCN5CC(=C)C6)nc4c3F)c12 [Example 158, 5-Ethynyl-6-fluoro-4-(8-fluoro-4-((1S,7S,8S)-8-fluoro-5-oxa-2-azabicyclo[5.1.0]octan-2-yl)-2-(((S)-2-methylenetetrahydro-1H-pyrrolizin-7a(5H)-yl)methoxy)pyrido[4,3-d]pyrimidin-7-yl)naphthalen-2-amine] gave an IC50 of under 50 nM.

Same assay, conditions: Homo sapiens, NCI-H441, cellular pERK HTRF, NCI-H441 (KRAS G12V) cells
With [2H]C([2H])(Oc1nc(N2CCOC[C@H]3[C@H](F)[C@H]32)c2cc(Cl)c(-c3ccc(F)c4sc(N)c(C#N)c34)c(C)c2n1)[C@@]12CCCN1C[C@H](F)C2 [Example 470, 2-amino-4-(6-chloro-4-((1S,7S,8S)-8-fluoro-5-oxa-2-azabicyclo[5.1.0]octan-2-yl)-2-(((2R,7aS)-2-fluorotetrahydro-1H-pyrrolizin-7a(5H)-yl)methoxy-d2)-8-methylquinazolin-7-yl)-7-fluorobenzo[b]thiophene-3-carbonitrile] the IC50 was under 50 nM.

Same assay, conditions: Homo sapiens, NCI-H441, pERK HTRF, NCI-H441 cells (KRAS G12V)
C#Cc1c(F)ccc2cc(O)cc(-c3ncc4c(N5CCC6CC6CC5)nc(OC[C@@]56CCCN5C[C@H](F)C6)nc4c3F)c12 (stereo partly drawn) [Example 3, 4-(4-(4-Azabicyclo[5.1.0]octan-4-yl)-8-fluoro-2-(((2R,7aS)-2-fluorotetrahydro-1H-pyrrolizin-7a(5H)-yl)methoxy)pyrido[4,3-d]pyrimidin-7-yl)-5-ethynyl-6-fluoronaphthalen-2-ol] showed an IC50 of under 50 nM.
For [2H]C([2H])(F)Oc1c(F)c(F)cc2cc(N)cc(-c3ncc4c(N5CCOC[C@H]6[C@H](F)[C@H]65)nc(OC([2H])([2H])[C@@]56CCCN5C[C@H](F)C6)nc4c3F)c12 [Example 88, 6,7-Difluoro-4-(8-fluoro-4-((1S,7S,8S)-8-fluoro-5-oxa-2-azabicyclo[5.1.0]octan-2-yl)-2-(((2R,7aS)-2-fluorotetrahydro-1H-pyrrolizin-7a(5H)-yl)methoxy-d2)pyrido[4,3-d]pyrimidin-7-yl)-5-(fluoromethoxy-d2)naphthalen-2-amine], the IC50 was under 50 nM.
[2H]C([2H])(Oc1nc(N2CCCCC[C@H]3[C@H](F)[C@H]32)c2cnc(-c3cc(N)cc4cc(F)c(F)c(C#C)c34)c(F)c2n1)[C@@]12CCCN1C[C@H](F)C2 [Example 60, 5-Ethynyl-6,7-difluoro-4-(8-fluoro-4-((1S,8R,9S)-9-fluoro-2-azabicyclo[6.1.0]nonan-2-yl)-2-(((2R,7aS)-2-fluorotetrahydro-1H-pyrrolizin-7a(5H)-yl)methoxy-d2)pyrido[4,3-d]pyrimidin-7-yl)naphthalen-2-amine] gave an IC50 of under 50 nM.
Compound [2H]C([2H])([2H])Oc1c(F)ccc2cccc(-c3ncc4c(N5CCCC[C@H]6[C@H](F)[C@H]65)nc(OC([2H])([2H])[C@@]56CCCN5C[C@H](F)C6)nc4c3F)c12 [Example 68, 8-Fluoro-7-(7-fluoro-8-(methoxy-d3)naphthalen-1-yl)-4-((1S,7R,8S)-8-fluoro-2-azabicyclo[5.1.0]octan-2-yl)-2-(((2R,7aS)-2-fluorotetrahydro-1H-pyrrolizin-7a(5H)-yl)methoxy-d2)pyrido[4,3-d]pyrimidine] has an IC50 of under 50 nM.
For [2H]C([2H])([2H])Oc1c(F)ccc2cccc(-c3ncc4c(N5CCOC[C@H]6[C@H](F)[C@H]65)nc(OC([2H])([2H])[C@@]56CCCN5C[C@H](F)C6)nc4c3F)c12 [Example 43, (1S,7S,8S)-8-Fluoro-2-(8-fluoro-7-(7-fluoro-8-(methoxy-d3)naphthalen-1-yl)-2-(((2R,7aS)-2-fluorotetrahydro-1H-pyrrolizin-7a(5H)-yl)methoxy-d2)pyrido[4,3-d]pyrimidin-4-yl)-5-oxa-2-azabicyclo[5.1.0]octane], the IC50 was under 50 nM.

Same assay, conditions: cellular pERK (Thr202/Tyr204) HTRF, NCI-H441 cells
[2H]C([2H])(Oc1nc(N2CCOC[C@H]3[C@H](F)[C@H]32)c2cc(F)c(-c3ccc(F)c4sc(N)c(C#N)c34)c(F)c2n1)[C@@]12CCCN1C[C@H](F)C2 (atropisomer, axis not shown; (aS)) [Example 357, 2-amino-4-((S)-6,8-difluoro-4-((1S,7S,8S)-8-fluoro-5-oxa-2-azabicyclo[5.1.0]octan-2-yl)-2-(((2R,7aS)-2-fluorotetrahydro-1H-pyrrolizin-7a(5H)-yl)methoxy-d2)quinazolin-7-yl)-7-fluorobenzo[b]thiophene-3-carbonitrile] was tested, and the IC50 was under 50 nM.
